# Laboratory results reported in article PMC8403083 (OncoTargets and therapy, 2021).
# Tests used:
# [1] = target: T1, CD73 (Mus musculus, UniProt Q61503); assay: CMP hydrolysis by EMT6 cells, Malachite green phosphate detection; type: cell-based
# T1 sequence (Q61503 29-551): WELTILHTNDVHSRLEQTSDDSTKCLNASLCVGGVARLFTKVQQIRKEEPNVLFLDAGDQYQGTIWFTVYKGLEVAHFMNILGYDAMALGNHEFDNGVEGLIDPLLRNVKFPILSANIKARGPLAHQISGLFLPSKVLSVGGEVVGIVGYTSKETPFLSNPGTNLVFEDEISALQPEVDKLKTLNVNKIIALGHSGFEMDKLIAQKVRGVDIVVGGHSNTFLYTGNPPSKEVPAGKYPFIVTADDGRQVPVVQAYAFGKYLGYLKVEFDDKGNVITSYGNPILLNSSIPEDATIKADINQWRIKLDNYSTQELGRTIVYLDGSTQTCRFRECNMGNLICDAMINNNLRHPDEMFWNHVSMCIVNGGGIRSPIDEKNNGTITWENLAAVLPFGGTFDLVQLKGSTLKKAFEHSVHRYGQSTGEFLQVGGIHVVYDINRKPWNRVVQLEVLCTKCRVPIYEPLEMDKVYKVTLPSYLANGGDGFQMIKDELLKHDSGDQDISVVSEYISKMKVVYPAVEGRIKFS
# [2] = target: T2, CD73 (5ʹ-Nucleotidase) (Homo sapiens, UniProt P21589); assay: Malachite green phosphate assay, CMP substrate, […] h preincubation; type: biochemical
# T2 sequence (P21589 27-547): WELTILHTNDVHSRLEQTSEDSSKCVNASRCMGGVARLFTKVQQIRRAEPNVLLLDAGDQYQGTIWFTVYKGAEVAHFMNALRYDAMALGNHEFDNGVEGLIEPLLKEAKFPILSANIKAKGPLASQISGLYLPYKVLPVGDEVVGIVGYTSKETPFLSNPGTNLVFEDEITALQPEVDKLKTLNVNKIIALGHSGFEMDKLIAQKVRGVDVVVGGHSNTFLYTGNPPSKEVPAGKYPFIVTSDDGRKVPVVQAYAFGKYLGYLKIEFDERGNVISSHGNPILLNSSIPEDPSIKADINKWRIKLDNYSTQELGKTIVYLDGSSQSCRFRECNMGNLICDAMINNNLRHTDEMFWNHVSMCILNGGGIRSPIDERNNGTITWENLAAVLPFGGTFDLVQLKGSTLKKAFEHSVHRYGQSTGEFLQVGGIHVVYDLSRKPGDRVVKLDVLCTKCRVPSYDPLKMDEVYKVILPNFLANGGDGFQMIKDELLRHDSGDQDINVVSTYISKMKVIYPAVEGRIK
Compound,IC50 [1],IC50 [2]
Nc1ncnc2c1ncn2[C@@H]1O[C@H](COP(=O)(O)CP(=O)(O)O)[C@@H](O)[C@H]1O [AMPCP],130 ± 8 nM,3.8 ± 0.8 nM
"O=P(O)(O)COC[C@H]1O[C@@H](n2ncc3c(N4CC5(CCc6ccccc65)C4)nc(Cl)nc32)[C@H](O)[C@@H]1O [SHR170008, ((((2R,3S,4R,5R)-5-(6-chloro-4-(2ʹ,3ʹ-dihydrospiro[azetidine-3,1ʹ-inden]-1-yl)-1H-pyrazolo[3,4-d]pyrimidin-1-yl)-3,4-dihydroxytetrahydrofuran-2-yl)methoxy)methyl) phosphonic acid]",0.133 ± 0.008 nM,–
